Results from US10696642B2, “TEAD transcription factor autopalmitoylation inhibitors” (The General Hospital Corporation, priority 2015, dated 2020).

What follows are compounds tested against T1, TEAD2 (Homo sapiens, UniProt Q15562) (assay: In vitro palmitoylation assay to measure potency of TEAD palmitoylation inhibitors (Example 11)). Settings: compound at 5 μM, 3 μM alkyne palmitoyl-CoA, normalized to DMSO control.
T1 construct: The cDNA encoding human TEAD2 (residues 217-447, TEAD2^217-447) was cloned into a pET29 vector; made in house; host or cells: E. coli BL21(DE3)-T1R
T1 sequence (Q15562 217-447): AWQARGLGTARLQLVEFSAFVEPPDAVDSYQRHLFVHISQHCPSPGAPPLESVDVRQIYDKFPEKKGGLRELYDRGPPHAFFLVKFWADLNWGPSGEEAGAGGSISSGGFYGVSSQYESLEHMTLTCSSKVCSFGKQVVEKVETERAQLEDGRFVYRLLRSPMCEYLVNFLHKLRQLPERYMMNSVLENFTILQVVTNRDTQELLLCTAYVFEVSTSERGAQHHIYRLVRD
Type: biochemical
Method: Recombinant His6TEAD2 (500 ng) protein was incubated with DMSO control or TEAD inhibitors (MGH-CP1 and its analogues) at 5 μM for 30 min. 3 μM of alkyne palmitoyl-CoA (Cayman Chemical) were then added into the reaction mixture and incubated for 2 h in 50 mM MES, pH 6.4. The reaction was quenched with 1% SDS followed by Click reaction with biotin-azide. Samples were analyzed by SDS-PAGE and streptavidin HRP. Bands intensity obtained from streptavidin blot were quantified using Image J (NIH), and normalized to DMSO control. The percentage of inhibition was determined by comparing to DMSO control and non-palmitoylated TEAD2. To determine the dose-dependency of the inhibitors, various concentrations of the compounds (10 nM to 20 μM) were incubated with TEAD2 protein for 30 min, and then 3 μM of alkyne palmitoyl-CoA (Cayman Chemical) were then added into the reaction mixture and incubated for 2 h in 50 mM MES, pH 6.4. The reaction was then quenched and analyzed similarly as descried above. The level of palmitoylation was then determined by the streptavidin blot, and plotted by Prism to determine the IC50 values.
Compounds (4) to (53) were tested for activity in inhibiting TEAD palmitoylation in the assay of Example 11. The data for the compounds provided in Table 2 as a percentage of inhibition of TEAD2 palmitoylation by the compound at a concentration of 5 μM.
For `O=C(Nc1ccc(C23CC4CC(CC(C4)C2)C3)cc1)c1cccnc1Nc1cccc(C(F)(F)F)c1`, the inhibition at 5 µM was less than 10%. In the case of `Cc1ccc(-c2nnc(SCCCC(=O)Nc3ccc(C45CC6CC(CC(C6)C4)C5)cc3)o2)cc1`, the inhibition at 5 µM is reported as 58%. With `Cc1cc(-c2ccc(NC(=O)CSc3nnc[nH]3)cc2)cc(C)n1` the inhibition at 5 µM was 95%. `Cc1ccc(-c2nnc(SCCC(=O)Nc3cccc(C45CC6CC(CC(C6)C4)C5)c3)o2)cc1` gave an inhibition at 5 µM of 80%. With `O=C(CSc1nnc[nH]1)Nc1ccc(-c2ccccc2)cc1Br` the inhibition at 5 µM was 89%. For `O=C(CCSc1nnc[nH]1)Nc1ccc(C23CC4CC(CC(C4)C2)C3)cc1`, the inhibition at 5 µM was 100%. `O=C(CSc1nnc[nH]1)Nc1ccc(C23CC4CC(CC(C4)C2)C3)cc1Br` gave an inhibition at 5 µM of 87%. In the case of `Cc1nnc(SCC(=O)Nc2ccc(C34CC5CC(CC(C5)C3)C4)cc2)o1`, the inhibition at 5 µM is reported as 76%. Work on `O=C(CSc1nnc[nH]1)Nc1ccc(-c2cc3ccccc3c3ccccc23)cc1` yielded an inhibition at 5 µM of 56%. `O=C(CSc1nnc[nH]1)Nc1ccc(-c2cc(-c3ccncc3)cc(-c3ccncc3)c2)cc1` gave an inhibition at 5 µM of 90%. `O=C(CSc1nnc[nH]1)Nc1ccc(-c2cccc(C(F)(F)F)c2)cc1` gave an inhibition at 5 µM of 88%. Work on `Cc1cccc(C)c1-c1ccc(NC(=O)CSc2nnc[nH]2)cc1` [drawing 42] yielded an inhibition at 5 µM of 100%. In the case of `O=C(CSc1nnc[nH]1)Nc1ccc(-c2ccccc2)cc1`, the inhibition at 5 µM is reported as 89%. With `CCCc1ccc(-c2ccc(NC(=O)CSc3nnc[nH]3)cc2)cc1` the inhibition at 5 µM was 97%. Compound `CCOc1ccc2nc(SCC(=O)Nc3ccc(C45CC6CC(CC(C6)C4)C5)cc3)sc2c1` has an inhibition at 5 µM of 40%. With `CC(C)c1ccc(NC(=O)CSc2nnc[nH]2)cc1` the inhibition at 5 µM was 24%. With `O=C(CSc1nncs1)Nc1ccc(C23CC4CC(CC(C4)C2)C3)cc1` the inhibition at 5 µM was 68%. Compound `CC(C)(C)c1ccc(-c2ccc(NC(=O)CSc3nnc[nH]3)cc2)cc1` has an inhibition at 5 µM of 100%. Compound `O=C(CSc1nnc[nH]1)Nc1ccc(-c2cc(-c3cccnc3)cc(-c3cccnc3)c2)cc1` has an inhibition at 5 µM of 95%. For `O=C(CSc1nnc[nH]1)Nc1ccc(-c2cc(-c3ccccc3)cc(-c3ccccc3)c2)cc1`, the inhibition at 5 µM was 68%. `O=C(CSc1nnc[nH]1)Nc1ccc(-c2cc(C(F)(F)F)cc(C(F)(F)F)c2)cc1` gave an inhibition at 5 µM of 95%. `O=C(CNc1nnc[nH]1)Nc1ccc(C23CC4CC(CC(C4)C2)C3)cc1` showed an inhibition at 5 µM of 45%. Compound `O=C(CSc1nnc[nH]1)Oc1ccc(C23CC4CC(CC(C4)C2)C3)cc1` has an inhibition at 5 µM of 39%. With `O=C(CSc1nnc[nH]1)Nc1ccc(-c2ccc(C3CCCCC3)cc2)cc1` the inhibition at 5 µM was 93%. Compound `O=C(CSc1nnc[nH]1)Nc1ccc(-c2cccc3ccccc23)cc1` has an inhibition at 5 µM of 90%. `O=C(CSc1nnc[nH]1)Nc1ccc(-c2cccc(-c3ccncc3)c2)cc1` showed an inhibition at 5 µM of 100%. `O=C(CSc1nnc[nH]1)Nc1ccc(-c2cccc(-c3ccccc3)c2)cc1` showed an inhibition at 5 µM of 70%. In the case of `COc1ccc(-c2nnc(SCC(=O)Nc3ccc(C45CC6CC(CC(C6)C4)C5)cc3)[nH]2)cc1`, the inhibition at 5 µM is reported as 80%. `Cc1nnc(SCCC(=O)Nc2cccc(C34CC5CC(CC(C5)C3)C4)c2)o1` was tested, and the inhibition at 5 µM was 80%. `O=C(CSc1nnc[nH]1)Nc1ccc(-c2ccncc2)cc1` showed an inhibition at 5 µM of 90%. Compound `Cn1cnnc1SCC(=O)Nc1ccc(-c2ccccc2)cc1` has an inhibition at 5 µM of 23%. `Nc1nncn1CC(=O)Nc1ccc(C23CC4CC(CC(C4)C2)C3)cc1` [drawing 55] was tested, and the inhibition at 5 µM was 38%. `CC(C)(C)c1ccc(NC(=O)CSc2nnc[nH]2)cc1` was tested, and the inhibition at 5 µM was 30%. Compound `O=C(CCCSc1nnc[nH]1)Nc1ccc(C23CC4CC(CC(C4)C2)C3)cc1` has an inhibition at 5 µM of 100%. Work on `O=C(CSc1nnc(-c2ccc(Cl)cc2Cl)o1)Oc1ccc(C23CC4CC(CC(C4)C2)C3)cc1` yielded an inhibition at 5 µM of 56%. `O=C(CSc1nnc[nH]1)Nc1ccc(-c2cc(-c3ccccc3)cc(C(F)(F)F)c2)cc1` gave an inhibition at 5 µM of 90%. `O=C(CSc1nnc[nH]1)Nc1ccc(-c2cc(-c3ccccc3)nc(-c3ccccc3)c2)cc1` showed an inhibition at 5 µM of 78%. `O=C(CSc1nnc[nH]1)Nc1ccc(C23CC4CC(CC(C4)C2)C3)cc1` [drawing 23] was tested, and the inhibition at 5 µM was 85%. `O=C(CS(=O)(=O)c1nnc[nH]1)Nc1ccc(C23CC4CC(CC(C4)C2)C3)cc1` showed an inhibition at 5 µM of less than 10%. `CCOc1ccc2nc(SCCC(=O)Nc3ccc(C45CC6CC(CC(C6)C4)C5)cc3)sc2c1` gave an inhibition at 5 µM of 47%. `O=C(CSc1nnc[nH]1)Nc1ccc(-c2cccc(-c3cccnc3)c2)cc1` gave an inhibition at 5 µM of 100%. `CCn1c(CN2CCOCC2)nnc1SCC(=O)Nc1ccc(C23CC4CC(CC(C4)C2)C3)cc1` was tested, and the inhibition at 5 µM was 10%. `O=C(CSc1nnc[nH]1)N(c1cccc(C(F)(F)F)c1)c1ccccn1` gave an inhibition at 5 µM of less than 10%. For `Cn1cnnc1SCC(=O)Nc1ccc(C23CC4CC(CC(C4)C2)C3)cc1`, the inhibition at 5 µM was 10%. In the case of `CCn1c(SCC(=O)Nc2ccc(C34CC5CC(CC(C5)C3)C4)cc2)nnc1-c1ccccc1O`, the inhibition at 5 µM is reported as 10%. In the case of `Cc1cc(C)cc(-c2ccc(NC(=O)CSc3nnc[nH]3)cc2)c1`, the inhibition at 5 µM is reported as 100%. `Cc1ccc(-c2nnc(SCC(=O)Nc3ccc(C45CC6CC(CC(C6)C4)C5)cc3)o2)cc1` was tested, and the inhibition at 5 µM was 53%. With `O=C(CCSc1nnc(-c2ccc(Cl)cc2Cl)o1)Nc1cccc(C23CC4CC(CC(C4)C2)C3)c1` the inhibition at 5 µM was 63%. `Cn1cnnc1SCC(=O)Nc1ccc(C23CC4CC(CC(C4)C2)C3)cc1Br` showed an inhibition at 5 µM of 12%. `Cn1c(SCC(=O)Nc2ccc(C34CC5CC(CC(C5)C3)C4)cc2)nnc1-c1ccccc1` was tested, and the inhibition at 5 µM was 70%.

The compounds below were run on HuH7 cells (assay: Colony formation, HuH7). Settings: tested at 0-20 μM (FIG. 29).
Type: cell-based, human
Method: Assays were performed to measure inhibition of cancer cell proliferation in HuH7 cells by compounds (4), (22) and (36), which were each tested at 0-20 μM.
In the case of `Nc1nncn1CC(=O)Nc1ccc(C23CC4CC(CC(C4)C2)C3)cc1` [Compound 36], the “inhibition of cancer cell proliferation / colony formation in HuH7 cells” value is reported as “less effective”. For `Cc1cccc(C)c1-c1ccc(NC(=O)CSc2nnc[nH]2)cc1` [Compound 23], the “inhibition of cancer cell proliferation / colony formation in HuH7 cells” value was “effective”.
